System: keratinocytes
Test: Active photoprotection against UVA oxidative stress induced on keratinocytes (DCFH-DA fluorescent probe)
Type: cell-based
Conditions: for % of fluorescence relative to the control cells exposed to UVA, TEST 1 / % of fluorescence relative to the control cells exposed to UVA, TEST 2: 24 hours preincubation, DCF fluorescence after UVA; for % of fluorescence relative to the control cells exposed to UVA, Mean: mean of TEST 1 and TEST 2
Procedure: The photoprotection evaluation technique is performed according to a well-known method (J. of Photochemistry and Photobiology B: Biology 57 (2000) 102–112 TOBI et al: Glutathione modulates the level of free radicals produced in UVA irradiated cells). This technique uses a fluorescent probe, a marker of intracellular global oxidative stress, 2′,7′-dichlorofluoresceine diacetate (DCFH-DA).
The use of DCFH-DA as an oxidative stress marker is based on its physicochemical properties. It is a nonionic apolar molecular capable of diffusing across cell membranes. Once inside the cell, DCFH-DA is hydrolysed by intracellular esterases to a non-fluorescent compound: DCFH or […]. In the presence of activated oxygen species, DCFH is rapidly oxidized to a highly fluorescent compound: DCF or 2,7-dichlorofluoresceine.
At confluence, the keratinocytes are incubated in the presence of a compound of formula (I) for 24 hours at 37° C., 5% CO2, in the culture medium, according to a dose effect (3 concentrations).
The keratinocytes, pretreated with a compound of formula (I), are rinsed and then incubated in the presence of DCFH-DA in the dark.
After this incubation, the DCFH-DA solution is removed and the cells are then exposed to UVA.
Comment: a non-exposed control plate is stored in the dark, at room temperature.
The fluorescence of the DCF is evaluated immediately after the exposure to UVA, via spectrofluorimetry (excitation: 480 nm; emission: 530 nm).
The results are expressed as % of fluorescence relative to the control cells exposed to UVA: […]

Q: With `O=C1NCC(=O)N2C(=O)SCC12` (stereo not shown) [Compound 2, Tetrahydrothiazolo[3,4-a]pyrazine-3,5,8-trione] as the compound, how does the “% of fluorescence relative to the control cells exposed to UVA, TEST 1” value (compound at 0.05 mM) read?
A: 98%

Q: And the “% of fluorescence relative to the control cells exposed to UVA, TEST 2” value (compound at 0.05 mM)?
A: 86%

Q: And the “% of fluorescence relative to the control cells exposed to UVA, Mean” value (compound at 0.05 mM)?
A: 92%

Q: And the “% of fluorescence relative to the control cells exposed to UVA, TEST 1” value (compound at 0.5 mM)?
A: 79%

Q: What about the “% of fluorescence relative to the control cells exposed to UVA, TEST 2” value (compound at 0.5 mM) of the same compound?
A: 74%

Q: And the “% of fluorescence relative to the control cells exposed to UVA, Mean” value (compound at 0.5 mM)?
A: 76.5%

Q: What about the “% of fluorescence relative to the control cells exposed to UVA, TEST 1” value (compound at 5 mM) of the same compound?
A: 69%

Q: And the “% of fluorescence relative to the control cells exposed to UVA, TEST 2” value (compound at 5 mM)?
A: 58%

Q: What about the “reduction of fluorescence (optimum efficacy)” value (compound at 5 mM, UVA oxidative stress) of the same compound?
A: about 36%

Q: What about the “% of fluorescence relative to the control cells exposed to UVA, Mean” value (compound at 5 mM) of the same compound?
A: 63.5%

Source: patent US7022317B2, “Heterocyclic derivatives of 2-oxothiazolidine-4-carboxylic acid, and use as active photoprotective agents” (L'Oreal, priority 2003, dated 2006)
